In US20240299484A1, “DILEUCINE COMPOSITIONS AND METHODS OF USE THEREOF” (Ingenious Ingredients, LP, priority 2023, published 2024):
Marks after values point to notes of the source that are not given here.

Key:
Format in all cases: in vivo, Swiss Albino mice
[1] = Treadmill exercise / endurance test; parameters: Percentage Increase over control (number of shocks) / Percentage Increase over control (time on shock zone) / Percentage Increase over control (distance travelled): concentration or dose not given beside the values; conditions: for Distance travelled (m) by mice during treadmill exercise Day −0 / No. of shocks during treadmill exercise Day −0 / Time spent on shock zone during excercise [sec] Day −0: Day −0 (baseline), n = 8, mice; for No. of shocks during treadmill exercise Day −28 / Time spent on shock zone during excercise [sec] Day −28: Day −28, oral once a day for 28 days; for Distance travelled (m) by mice during treadmill exercise Day −28: Day −28, until exhaustion, oral once a day for 28 days; for Distance Increase over Day −0 / No of Shocks Decrease over Day −0 / Time spent on shock zone over Day −0: Day −28 minus Day −0; for Percentage Increase over control (time on shock zone): change vs Exercise Control; for Percentage Increase over control (time on shock zone) / Percentage Increase over control (number of shocks) / Percentage Increase over control (distance travelled): 28 days; for Percentage Increase over control (number of shocks): decrease in shocks vs Exercise Control; for Percentage Increase over control (distance travelled): increase vs Exercise Control
Description: (§1) Eight 8-week-old male Swiss Albino mice per experimental group were housed in an animal room at a constant temperature (22±3° C.) and humidity (30%-70%) under a 12:12 h light-dark cycle with standard laboratory diet (Purina 5L79, Rat and Mouse 18% protein; PMI Nutrition International, Brentwood, MO, USA). Distilled water was provided ad libitum. All animal experiments were reviewed and approved by the Institutional Animal Ethical Committee (IAEC) of Radiant Research Services Pvt. Ltd (Bangalore, India). All research was conducted in accordance with the guidelines of the committee for the purpose of control and supervision of experiments on animals (CPCSEA Registration Number-1803/PO/RcBi/S/2015/CPCSEA).
(§2) After one week of acclimation, the animals were randomly divided by body weight into different groups (n=8 per group in each test) for oral treatment once a day, at approximately same time each day (+1 hour), for 28 consecutive days: (1) vehicle control; (2) paraxanthine (3) dileucine; (4) paraxanthine+dileucine; (5) L-arginine; (6) L-arginine+dileucine; (7) L-citrulline; and (8) L-citrulline+dileucine. The dose administered to the mice was calculated using US Food and Drug Administration for human equivalence doses (HED), assuming a human weight of 60 kg. The following HED were used in this study: 2,000 mg dileucine (RAMPS™, Ingenious Ingredients, L.P., Lewisville, TX, USA; mouse 411 mg/kg bw), 100 mg paraxanthine, (ENFINITY™, Ingenious Ingredients, L.P Lewisville, TX, USA; mouse dose: 20.5 mg/kg bw/day); 3,000 mg L-arginine (Nanjing Nutrabuilding Bio-tech Co., LTD., No. 270 Jiqingmen Strect, Suning Huigu, Building E6, Room 2105, Nanjing, China 210017; mouse 616.55 mg/kg bw), 3,000 mg L-citrulline (Nanjing Nutrabuilding Bio-tech Co., LTD., No. 270 Jiqingmen Street, Suning Huigu, Building E6, Room 2105, Nanjing, China 210017; mouse 616.55 mg/kg bw). 0.5% Carboxy Methyl Cellulose sodium was used as vehicle and the test item formulations were prepared daily. Dosing was conducted via oral gavage using disposable polypropylene syringes with sterilized stainless steel gavage tubes. The food intake and water consumption were monitored daily, and BW was recorded weekly. The last dose on day 28 was given 1 hour prior to testing.
During the treatment period, exercise training was completed using a motorized treadmill (Exer 3/6, Columbus Instruments international, OH, USA) at a moderate intensity of 20 cm/sec as maximal running speed, an incline of ten degrees and a shock intensity of 0.2 mA, for ten minutes. The speed of the treadmill was manually adjusted by increasing the belt speed by 5 cm/sec every two minutes throughout the total duration of ten minutes. All animals were adapted to this procedure daily 60 minutes after dosing for five days in a week during the treatment period.
On 28th day of each respective treatment, all animals were subjected to a muscle endurance test. Muscle endurance was accomplished on a motorized treadmill at a low to moderate intensity of 5-50 cm/sec as maximal running speed, an incline of ten degrees and a shock intensity of 0.2 mA, with the belt speed being increased by 5 cm/sec every two minutes until it reaches 50 cm/sec. Animals were subjected to the treadmill test until exhaustion. Distance traveled (m) was measured as a marker of exercise performance.

[2] = system: total cholesterol (TC); assay: Blood lipids: total cholesterol; conditions: for TC / TC [mg/dl]: after 28 days of supplementation, mice, n = 8; for TC Change over control [%]: vs Exercise Control, 28 days
Description: as §1, §2
(§3) All animals were euthanized by 95% CO2 after 28 days of following their assigned treatment. Blood was collected immediately after euthanization by the retro-orbital route and was immediately centrifuged at 1500×g for 10 min at 4° C. before having all serum transferred into cryogenic tubes and stored at −80° C.
(§4) Serum and plasma samples were separated by centrifuging the blood at 8000 rpm for 10 mins and analyze the below mentioned biomarkers, Biomarkers: TC, TG, LDL and HDL, CRP, Serum lactate, Ammonia, Glucose, NO, IL-2, IL-6, IL-10. Blood was collected in EDTA tubes for below mentioned biomarkers, Immune health Biomarkers (T helper subsets): TH1, TH2, TH17, Tfh, iTreg.

[3] = system: iTreg; assay: Immune health biomarkers (T helper subsets): iTreg; conditions: for iTreg(%) / iTreg(%) (mg/L): T helper subset in blood after 28 days, mice, n = 8; for iTreg Change over control [%]: vs Exercise Control, 28 days
Description: as §1, §2, §4

[4] = system: IL-2; assay: Inflammatory markers: IL-2; conditions: for IL-2 Change over control [%]: vs Exercise Control, 28 days
Description: as §1, §2, §3, §4

[5] = system: low-density lipids (LDL); assay: Blood lipids: LDL; conditions: for LDL: after 28 days of supplementation, mice, n = 8; for LDL Change over control [%]: vs Exercise Control, 28 days
Description: as §1, §2, §3, §4

[6] = system: TH17; assay: Immune health biomarkers (T helper subsets): TH17; conditions: for TH17(%): T helper subset in blood after 28 days, mice, n = 8; for TH17 Change over control [%]: vs Exercise Control, 28 days
Description: PMI Nutrition International, Brentwood, MO, USA). Distilled water was provided ad libitum. All animal experiments were reviewed and approved by the Institutional Animal Ethical Committee (IAEC) of Radiant Research Services Pvt. Ltd (Bangalore, India). All research was conducted in accordance with the guidelines of the committee for the purpose of control and supervision of experiments on animals (CPCSEA Registration Number-1803/PO/[…]). […] (1) vehicle control; […] (4) paraxanthine+dileucine; […] The dose administered to the mice was calculated using US Food and Drug Administration for human equivalence doses (HED), assuming a human weight of 60 kg. […] Dosing was conducted via oral gavage using disposable polypropylene syringes with sterilized stainless steel gavage tubes. The food intake and water consumption were monitored daily, and BW was recorded weekly. The last dose on day 28 was given 1 hour prior to testing. Serum and plasma samples were separated by centrifuging the blood at 8000 rpm for 10 mins and analyze the below mentioned biomarkers, Biomarkers: TC, TG, LDL and HDL, CRP, Serum lactate, Ammonia, Glucose, NO, IL-2, IL-6, IL-10. Blood was collected in EDTA tubes for below mentioned biomarkers, Immune health Biomarkers (T helper subsets): […]

[7] = system: high-density lipids (HDL); assay: Blood lipids: HDL; conditions: for HDL Change over control [%]: vs Exercise Control, 28 days
Description: as §1, §2, §3, §4

[8] = system: nitric oxide; assay: NO signaling: nitric oxide level; conditions: for Nitric oxide (μmol/L) (mg/L): after 28 days of supplementation and exercise, mice, n = 8; for Nitric oxide Change over control [%]: vs Exercise Control, 28 days
Description: as §1, §2, §3, §4

[9] = after 28 days of supplementation and exercise, mice, n = 8
[10] = after 28 days of supplementation, mice, n = 8

N=C(N)NCCC[C@H](N)C(=O)O [L-Arginine, L-arginine]
Distance travelled (m) by mice during treadmill exercise Day −0 [1]: 39.13 m | No. of shocks during treadmill exercise Day −0 [1]: 30.38 | Time spent on shock zone during excercise [sec] Day −0 [1]: 90 s | No. of shocks during treadmill exercise Day −28 [1]: 16.75*** | Time spent on shock zone during excercise [sec] Day −28 [1]: 35.13*** sec | Distance travelled (m) by mice during treadmill exercise Day −28 [1]: 314.25*** m | Distance Increase over Day −0 [1]: 275.12 m | No of Shocks Decrease over Day −0 [1]: −13.63 | Time spent on shock zone over Day −0 [1]: -54.87 s | Percentage Increase over control (time on shock zone) [1]: 80% | Percentage Increase over control (number of shocks) [1]: 73% | Percentage Increase over control (distance travelled) [1]: 98% | TC [2]: 95.43 mg/dL | TC Change over control [%] [2]: −5% | iTreg(%) [3]: 35.86*** % | iTreg Change over control [%] [3]: −34% | IL-2 (ng/L) [4, 9]: 42.04*** ng/L | IL-2 Change over control [%] [4]: 23% | LDL [5]: 44.66 mg/dL | LDL Change over control [%] [5]: 3% | TH17(%) [6]: 26.16*** % | TH17 Change over control [%] [6]: 617% | HDL [7, 10]: 35.86 mg/dL | HDL Change over control [%] [7]: 5% | Nitric oxide (μmol/L) (mg/L) [8]: 77.98* μmol/L | Nitric oxide Change over control [%] [8]: 29%

CC(C)C[C@H](NC(=O)[C@@H](N)CC(C)C)C(=O)O [Dileucine, L-Leucyl-L-leucine]
Distance travelled (m) by mice during treadmill exercise Day −0 [1]: 38.88 m | No. of shocks during treadmill exercise Day −0 [1]: 27.63 | Time spent on shock zone during excercise [sec] Day −0 [1]: 91 s | No. of shocks during treadmill exercise Day −28 [1]: 13*** | Time spent on shock zone during excercise [sec] Day −28 [1]: 31.88*** sec | Distance travelled (m) by mice during treadmill exercise Day −28 [1]: 328.5*** m | Distance Increase over Day −0 [1]: 289.62 m | No of Shocks Decrease over Day −0 [1]: −14.63 | Time spent on shock zone over Day −0 [1]: -59.12 s | Percentage Increase over control (time on shock zone) [1]: 94% | Percentage Increase over control (number of shocks) [1]: 86% | Percentage Increase over control (distance travelled) [1]: 109% | TC [2]: 93.3 mg/dL | TC Change over control [%] [2]: −6% | iTreg(%) (mg/L) [3]: 18.68*** % | iTreg Change over control [%] [3]: −66% | IL-2 (ng/L) [4, 9]: 46.4*** ng/L | IL-2 Change over control [%] [4]: 24% | LDL [5]: 42.05 mg/dL | LDL Change over control [%] [5]: −3% | TH17(%) [6]: 29.62*** % | TH17 Change over control [%] [6]: 712% | HDL [mg/dl] [7, 10]: 37.63* mg/dl | HDL Change over control [%] [7]: 8% | Nitric oxide (μmol/L) (mg/L) [8]: 84.83*** μmol/L | Nitric oxide Change over control [%] [8]: 34%

Cn1c(=O)[nH]c2ncn(C)c2c1=O [Paraxanthine, 1,7-dimethylxanthine]
Distance travelled (m) by mice during treadmill exercise Day −0 [1]: 41.13 m | No. of shocks during treadmill exercise Day −0 [1]: 26.5 | Time spent on shock zone during excercise [sec] Day −0 [1]: 90.75 s | No. of shocks during treadmill exercise Day −28 [1]: 13.38*** | Time spent on shock zone during excercise [sec] Day −28 [1]: 32.25*** sec | Distance travelled (m) by mice during treadmill exercise Day −28 [1]: 325.75*** m | Distance Increase over Day −0 [1]: 284.62 m | No of Shocks Decrease over Day −0 [1]: −13.12 | Time spent on shock zone over Day −0 [1]: -58.5 s | Percentage Increase over control (time on shock zone) [1]: 92% | Percentage Increase over control (number of shocks) [1]: 67% | Percentage Increase over control (distance travelled) [1]: 105% | TC [mg/dl] [2]: 91.66** mg/dl | TC Change over control [%] [2]: −8% | iTreg(%) (mg/L) [3]: 23.68*** % | iTreg Change over control [%] [3]: −57% | IL-2 [4, 9]: 45.91 ng/L | IL-2 Change over control [%] [4]: 23% | LDL [5]: 43.23 mg/dL | LDL Change over control [%] [5]: −1% | TH17(%) [6]: 31.33*** % | TH17 Change over control [%] [6]: 758% | HDL [7, 10]: 36.36 mg/dL | HDL Change over control [%] [7]: 4% | Nitric oxide (μmol/L) (mg/L) [8]: 84.29*** μmol/L | Nitric oxide Change over control [%] [8]: 33%

NC(=O)NCCC[C@H](N)C(=O)O [L-Citrulline, L-citrulline]
Distance travelled (m) by mice during treadmill exercise Day −0 [1]: 38.5 m | No. of shocks during treadmill exercise Day −0 [1]: 28.63 | Time spent on shock zone during excercise [sec] Day −0 [1]: 90.88 s | No. of shocks during treadmill exercise Day −28 [1]: 17.00*** | Time spent on shock zone during excercise [sec] Day −28 [1]: 36.63*** sec | Distance travelled (m) by mice during treadmill exercise Day −28 [1]: 312*** m | Distance Increase over Day −0 [1]: 273.5 m | No of Shocks Decrease over Day −0 [1]: −11.63 | Time spent on shock zone over Day −0 [1]: -54.25 s | Percentage Increase over control (time on shock zone) [1]: 78% | Percentage Increase over control (number of shocks) [1]: 48% | Percentage Increase over control (distance travelled) [1]: 97% | TC [mg/dl] [2]: 94.26* mg/dl | TC Change over control [%] [2]: −6% | iTreg(%) [3]: 38.83*** % | iTreg Change over control [%] [3]: −29% | IL-2 (ng/L) [4, 9]: 42.8*** ng/L | IL-2 Change over control [%] [4]: 25% | LDL [5]: 44.01 mg/dL | LDL Change over control [%] [5]: 1% | TH17(%) [6]: 25.89*** % | TH17 Change over control [%] [6]: 609% | HDL [7, 10]: 35.63 mg/dL | HDL Change over control [%] [7]: 4% | Nitric oxide (μmol/L) (mg/L) [8]: 77.61 µmol/L | Nitric oxide Change over control [%] [8]: 28%
